For 34 compounds, IC50 results are on record in US12649751B2 (Arcus Biosciences, Inc., priority 2022, dated 2026).

For experiment [1], the target named is HPK1 (Homo sapiens, UniProt Q92918). The experiment in a line: HPK1 Biochemical Assay (ADP-Glo luminescence; low ATP 10 μM or high ATP 200 μM).
The test system of experiment [2] is p-SLP-76 (Ser376) in Jurkat cells. Nature of the experiment: pSLP76 Cellular Assay (AlphaLISA SureFire Ultra p-SLP-76 (Ser376), anti-CD3 activated Jurkat cells). It is filed as cell-based. As to conditions: Homo sapiens, read-out: Cellular Potency. Summed up: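 Jurkat cells, serum-starved overnight in Opti-MEM then in HBSS, preincubated 1 h at 37 °C with 22-point 2-fold compound dilutions, then stimulated with anti-CD3 (0.025 mg/ml added solution) for 45 min. Lysate p-SLP-76 (Ser376) measured by AlphaLISA at 570 nm; IC50 from 4-parameter logistic fit.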

[3] abbreviates: 2 nM HPK1, 10 μM ATP, read-out: Biochemical Potency (low ATP).
Setting [4] is: Jurkat cells, anti-CD3 stimulation, pSLP76.
Setting [5] is: HPK1 ADP-Glo assay, high ATP (200 μM ATP, 5 nM HPK1), read-out: Biochemical Potency (high ATP).
Setting [6] is: pSLP76 (Ser376) AlphaLISA, anti-CD3 activated Jurkat cells.
Setting [7] is: HPK1 ADP-Glo assay, low ATP (10 μM ATP, 2 nM HPK1), read-out: Biochemical Potency (low ATP).

Each structure is given as a SMILES string. Read-outs that look alike come from different tables or passages of the source.

Sequence of HPK1 (Q92918 whole entry, species assumed): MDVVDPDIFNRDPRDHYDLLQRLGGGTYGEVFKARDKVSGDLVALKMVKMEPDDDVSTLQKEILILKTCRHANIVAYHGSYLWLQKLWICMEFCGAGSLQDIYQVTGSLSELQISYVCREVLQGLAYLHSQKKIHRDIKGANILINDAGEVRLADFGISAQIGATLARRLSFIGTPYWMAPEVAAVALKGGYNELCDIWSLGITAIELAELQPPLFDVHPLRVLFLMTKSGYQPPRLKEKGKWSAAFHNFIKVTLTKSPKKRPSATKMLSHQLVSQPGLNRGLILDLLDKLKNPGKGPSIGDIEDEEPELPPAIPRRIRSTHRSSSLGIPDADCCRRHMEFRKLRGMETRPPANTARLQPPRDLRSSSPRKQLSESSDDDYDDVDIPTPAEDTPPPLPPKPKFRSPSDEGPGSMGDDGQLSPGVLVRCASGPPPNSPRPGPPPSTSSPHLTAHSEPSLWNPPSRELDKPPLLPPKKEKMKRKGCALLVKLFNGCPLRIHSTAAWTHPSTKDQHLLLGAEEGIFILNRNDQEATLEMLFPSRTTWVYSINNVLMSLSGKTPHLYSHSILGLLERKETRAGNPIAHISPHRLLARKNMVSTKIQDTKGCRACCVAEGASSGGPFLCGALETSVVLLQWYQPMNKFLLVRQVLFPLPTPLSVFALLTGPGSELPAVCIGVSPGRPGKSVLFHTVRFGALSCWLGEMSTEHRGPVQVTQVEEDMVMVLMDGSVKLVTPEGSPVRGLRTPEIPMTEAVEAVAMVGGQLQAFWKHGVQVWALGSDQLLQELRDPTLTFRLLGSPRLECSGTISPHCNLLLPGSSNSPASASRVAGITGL

As for `CN1C[C@@H]2C[C@H]1CN2c1nccc(Nc2cc3nc(-c4ccnc(N5CCOCC5)c4)sc3cn2)n1` [Example 268, 2-[(1S,4S)-5-Methyl-2,5-diazabicyclo[2.2.1]heptan-2-yl]-N-{2-[2-(morpholin-4-yl)pyridin-4-yl]-[1,3]thiazolo[5,4-c]pyridin-6-yl}pyrimidin-4-amine], the IC50 in experiment [1] (setting [3]) was < 100 nM; in experiment [2] (setting [4]) it was 100 to 1000 nM.
For the compound `Cc1cc(Nc2cc3nc(-c4cnn(C5CC5)c4)sc3cn2)nc(N2C[C@@H]3C[C@H]2CN3CC2CC2)n1` [Example 364], the IC50 in experiment [1] (setting [5]) and in experiment [2] (setting [6]) was < 100 nM in each case.
Regarding `CN1C[C@@H]2C[C@H]1CN2c1nccc(Nc2cc3nc(-c4cccc(NS(C)(=O)=O)c4)sc3cn2)n1` [Example 286, N-{3-[6-({2-[(1S,4S)-5-methyl-2,5-diazabicyclo[2.2.1]heptan-2-yl]pyrimidin-4-yl}amino)-[1,3]thiazolo[5,4-c]pyridin-2-yl]phenyl}methanesulfonamide], the IC50 in experiment [1] (setting [3]) is < 100 nM; in experiment [1] (5 nM HPK1, 200 μM ATP, read-out: Biochemical Potency (high ATP)) it was < 100 nM; in experiment [2] (setting [4]) it was 1000 to 5000 nM.
With `Fc1cccc(F)c1-c1nc2cc(Nc3ccc(N4CCOCC4)c(CN4CCCC4)n3)ncc2s1` [Example 17, N-[2-(2,6-Difluorophenyl)-[1,3]thiazolo[5,4-c]pyridin-6-yl]-5-(morpholin-4-yl)-6-[(pyrrolidin-1-yl)methyl]pyridin-2-amine], the IC50 in experiment [1] (setting [3]) is < 100 nM; in experiment [2] (setting [4]) it was 1000 to 5000 nM.
Turning to `Cc1cc(Nc2cc3nc(-c4cccc(S(=O)(=O)N5CCCC5)c4)sc3cn2)nc(N2C[C@@H]3C[C@H]2CN3CCO)n1` [Example 344], the IC50 in experiment [1] (setting [5]) and in experiment [2] (setting [6]) was < 100 nM each time.
On to `Cc1cc(Nc2cc3nc(-c4cccc(C(=O)N(C)C5CCCC5)c4)sc3cn2)nc(N2C[C@@H]3C[C@H]2CN3CCO)n1` [Example 544], for which the IC50 in experiment [1] (setting [5]) and in experiment [2] (setting [6]) was < 100 nM in each case.
As for `Cc1cccc(F)c1-c1nc2cc(Nc3ccc(N4CCC(O)CC4)c(CN(C)C)n3)ncc2s1` [Example 18, 1-{2-[(Dimethylamino)methyl]-6-{[2-(2-fluoro-6-methylphenyl)-[1,3]thiazolo[5,4-c]pyridin-6-yl]amino}pyridin-3-yl}piperidin-4-ol], the IC50 in experiment [1] (setting [3]) was < 100 nM; in experiment [2] (setting [4]), 100 to 1000 nM.
Turning to `Cc1cc(Nc2cc3nc(-c4ncccc4OC(F)F)sc3cn2)nc(N2C[C@@H]3C[C@H]2CN3C)n1` [Example 468], the IC50 is < 100 nM in experiment [1] (setting [5]) and 100 to 1000 nM in experiment [2] (setting [6]).
The corresponding values for `Cc1cc(Nc2cc3nc(-c4cnn(CC5CC5)c4)sc3cn2)nc(N2C[C@@H]3C[C@H]2CN3CC(=O)N(C)C)n1` [Example 356] are 100 to 1000 nM and 1000 to 5000 nM.
Turning to `CCN1C[C@@H]2C[C@H]1CN2c1nc(C)cc(Nc2cc3nc(-c4cccc(C(=O)N5C[C@@H]6OCCO[C@@H]6C5)c4)sc3cn2)n1` [Example 529], the IC50 in experiment [1] (setting [5]) and in experiment [2] (setting [6]) was < 100 nM in each case.
For the compound `CC(=O)N1CCC(N2C[C@@H]3C[C@H]2CN3c2nc(C)cc(Nc3cc4nc(-c5cccc(C(=O)N(C)C)c5)sc4cn3)n2)CC1` [Example 332], the IC50 in experiment [1] (setting [5]) is < 100 nM; in experiment [2] (setting [6]), 1000 to 5000 nM.
Taken in the same sequence, the figures for `Cc1cc(Nc2cc3nc(-c4cccc(C#Cc5cnn(C)c5)c4)sc3cn2)nc(N2C[C@@H]3C[C@H]2CN3CCO)n1` [Example 362] were < 100 nM and 1000 to 5000 nM.
Taken in the same sequence, the figures for `CCN1C[C@@H]2C[C@H]1CN2c1nc(C)cc(Nc2cc3nc(-c4cccc(C(=O)N5CCC(C)(C)C5)c4)sc3cn2)n1` [Example 521] were < 100 nM and 100 to 1000 nM.
Taken in the same sequence, the figures for `CCN1C[C@@H]2C[C@H]1CN2c1nc(C)cc(Nc2cc3nc(-c4cc(C(=O)N(C)C)cc(C5CC5)c4)sc3cn2)n1` [Example 536] were < 100 nM and < 100 nM.
With `Cc1cc(Nc2cc3nc(-c4cccc(C(=O)N(C)C)c4)sc3cn2)nc(N2C[C@@H]3C[C@H]2CN3Cc2ccccn2)n1` [Example 493], the IC50 in experiment [1] (setting [5]) was < 100 nM; in experiment [2] (setting [6]) it was 100 to 1000 nM.
For `CN1C[C@@H]2C[C@H]1CN2c1cccc(Nc2cc3nc(-c4cccc(C#N)c4)sc3cn2)n1` [Example 133, 3-[6-({6-[(1S,4S)-5-Methyl-2,5-diazabicyclo[2.2.1]heptan-2-yl]pyridin-2-yl}amino)-[1,3]thiazolo[5,4-c]pyridin-2-yl]benzonitrile], the results for the IC50 in experiment [1] (setting [3]) and in experiment [2] (setting [4]) were < 100 nM and > 5000 nM, respectively.
For the compound `Cc1cccc(C)c1-c1nc2cc(Nc3ccc(N4CCOCC4)c(CN(C)C)n3)ncc2s1` [Example 13, 6-[(Dimethylamino)methyl]-N-[2-(2,6-dimethylphenyl)-[1,3]thiazolo[5,4-c]pyridin-6-yl]-5-(morpholin-4-yl)pyridin-2-amine], the IC50 in experiment [1] (setting [3]) is < 100 nM; in experiment [2] (setting [4]), 100 to 1000 nM.
Take `Cc1cc(Nc2cc3nc(-c4cccc(C5CCOCC5)c4)sc3cn2)nc(N2C[C@@H]3C[C@H]2CN3C)n1` [Example 404]: the IC50 is < 100 nM in experiment [1] (setting [5]) and 1000 to 5000 nM in experiment [2] (setting [6]).
The corresponding values for `Cc1cc(Nc2cc3nc(-c4cnn(C)c4C(C)(C)O)sc3cn2)nc(N2C[C@@H]3C[C@H]2CN3C)n1` [Example 309, 2-{4-[6-(2-{(1S,4S)-5-methyl-2,5-diazabicyclo[2.2.1]hept-2-yl}-6-methyl-4-pyrimidinylamino)-3-thia-1,5-diaza-2-indenyl]-1-methyl-5-pyrazolyl}-2-propanol] are < 100 nM and < 100 nM.
Consider `Cc1cccnc1-c1nc2cc(Nc3nc(N4C[C@@H]5C[C@H]4CN5)ccc3F)ncc2s1` [Example 320], for which the IC50 in experiment [1] (setting [5]) was < 100 nM; in experiment [1] (setting [7]) it was < 100 nM; in experiment [2] (setting [6]), 100 to 1000 nM.
As for `Cc1cccnc1-c1nc2cc(Nc3cc(-c4cnccc4C#N)cc(N4C[C@@H]5C[C@H]4CN5C)n3)ncc2s1` [Example 434], the IC50 in experiment [1] (setting [5]) was < 100 nM; in experiment [2] (setting [6]), 100 to 1000 nM.
Taken in the same sequence, the figures for `Cc1cc(Nc2cc3nc(-c4cccc(N5CC(F)C5)c4)sc3cn2)nc(N2C[C@@H]3C[C@H]2CN3C)n1` [Example 479] were < 100 nM and 100 to 1000 nM.
Taken in the same sequence, the figures for `CCN1C[C@@H]2C[C@H]1CN2c1nc(C)cc(Nc2cc3nc(-c4ccc(F)c(C(=O)NC5CCCC5)c4)sc3cn2)n1` [Example 513] were < 100 nM and < 100 nM.
For `CS(=O)(=O)c1cccc(-c2nc3cc(Nc4cc(C5CCOCC5)nc(N5C[C@@H]6C[C@H]5CN6)n4)ncc3s2)c1` [Example 443], the IC50 in experiment [1] (setting [5]), in experiment [1] (setting [7]) and in experiment [2] (setting [6]) was < 100 nM throughout.
As to `Cc1ccc(Nc2cc3nc(-c4c(F)cccc4F)sc3cn2)nc1CN(C)C` [Example 46, N-[2-(2,6-Difluorophenyl)-[1,3]thiazolo[5,4-c]pyridin-6-yl]-6-[(dimethylamino)methyl]-5-methylpyridin-2-amine], the IC50 in experiment [1] (setting [3]) was < 100 nM; in experiment [2] (setting [4]) it was 1000 to 5000 nM.
Regarding `CCN1C[C@@H]2C[C@H]1CN2c1nc(C)cc(Nc2cc3nc(Oc4cccnc4)sc3cn2)n1` [Example 484], the IC50 in experiment [1] (setting [5]) and in experiment [2] (setting [6]) was < 100 nM in each case.
With `CO[C@@H]1CCN(c2cc(-c3nc4cc(Nc5cc(C)nc(N6C[C@@H]7C[C@H]6CN7CCO)n5)ncc4s3)ccn2)C1` [Example 453], the IC50 is < 100 nM in experiment [1] (setting [5]) and 100 to 1000 nM in experiment [2] (setting [6]).
The corresponding values for `CCc1cc(C(=O)N(C)C)cc(-c2nc3cc(Nc4cc(C)nc(N5C[C@@H]6C[C@H]5CN6CCO)n4)ncc3s2)c1` [Example 546] are < 100 nM and < 100 nM.
The corresponding values for `Cc1cc(Nc2cc3nc(-c4ccnc(N5C6CCC5COC6)c4)sc3cn2)nc(N2C[C@@H]3C[C@H]2CN3CCO)n1` [Example 447] are < 100 nM and < 100 nM.
Turning to `Cc1cc(Nc2cc3nc(-c4cccc(C(=O)N5CCOCC5)c4)sc3cn2)nc(N2C[C@@H]3C[C@H]2CN3CCO)n1` [Example 565], the IC50 was < 100 nM in experiment [1] (setting [5]) and 100 to 1000 nM in experiment [2] (setting [6]).
Consider `Cc1cc(Nc2cc3nc(-c4cccnc4)sc3cn2)nc(O[C@H]2CCNC2)c1` [Example 167, 4-Methyl-N-[2-(pyridin-3-yl)-[1,3]thiazolo[5,4-c]pyridin-6-yl]-6-[(3S)-pyrrolidin-3-yloxy]pyridin-2-amine], for which the IC50 in experiment [1] (setting [3]) and in experiment [2] (setting [4]) was < 100 nM throughout.
On to `CN1C[C@@H]2C[C@H]1CN2c1cncc(Nc2cc3nc(-c4cccc(NS(C)(=O)=O)c4)sc3cn2)n1` [Example 412], for which the IC50 in experiment [1] (setting [5]) is < 100 nM; in experiment [1] (setting [7]), < 100 nM; in experiment [2] (setting [6]), 100 to 1000 nM.
As for `CN1C[C@@H]2C[C@H]1CN2c1nccc(Nc2cc3nc(-c4ccnc(N5CC[C@@H](O)C5)c4)sc3cn2)n1` [Example 264, (3R)-1-{4-[6-({2-[(1S,4S)-5-Methyl-2,5-diazabicyclo[2.2.1]heptan-2-yl]pyrimidin-4-yl}amino)-[1,3]thiazolo[5,4-c]pyridin-2-yl]pyridin-2-yl}pyrrolidin-3-ol], the IC50 in experiment [1] (setting [3]) was < 100 nM; in experiment [2] (setting [4]), 100 to 1000 nM.
Take `Cc1cc(Nc2cc3nc(-c4ccn5nccc5c4)sc3cn2)nc(N2C[C@@H]3C[C@H]2CN3C)n1` [Example 377]: the IC50 in experiment [1] (setting [5]) is < 100 nM; in experiment [2] (setting [6]), 5000 to 25000 nM.
